Earlier results in patent publication US20120308672A1, “COMPOSITIONS FOR HAIR AND BODY APPLICATION” (EQYSS GROOMING PRODUCTS, priority 2004, published 2012).

System: mosquitoes
Settings: topical repellent

For `CCN(CC)C(=O)c1cccc(C)c1` [DEET, N,N,-diethyl-m-toluamide], the protection against mosquitoes is listed as “effective and long-lasting protection”.
